From ChEMBL document CHEMBL5126586, “Chemical analysis of amyloid β aggregation inhibitors derived from Geranium thunbergii” (Bioorg Med Chem, 2022)

Experiments:
[1] = target: T1, Amyloid-beta precursor protein (Homo sapiens, UniProt P05067); assay: Inhibition of amyloid beta 1 to 42 aggregation (unknown origin) incubated for 24 hrs by inverted fluorescence microscopic analysis
[2] = target: T1, Amyloid-beta precursor protein; assay: Inhibition of amyloid beta 1 to 42 aggregation (unknown origin) incubated for 24 hrs by inverted fluorescence microscopic analysis relative to control; settings: concentration not given here
[3] = target: T1, Amyloid-beta precursor protein; assay: Inhibition of amyloid beta 1 to 42 aggregation (unknown origin) incubated for 24 hrs by ThT fluorescence assay relative to control; settings: concentration not given here
[4] = target: T1, Amyloid-beta precursor protein; assay: Inhibition of amyloid beta 1 to 42 aggregation (unknown origin) incubated for 24 hrs by ThT fluorescence assay

T1 sequence (P05067 whole entry): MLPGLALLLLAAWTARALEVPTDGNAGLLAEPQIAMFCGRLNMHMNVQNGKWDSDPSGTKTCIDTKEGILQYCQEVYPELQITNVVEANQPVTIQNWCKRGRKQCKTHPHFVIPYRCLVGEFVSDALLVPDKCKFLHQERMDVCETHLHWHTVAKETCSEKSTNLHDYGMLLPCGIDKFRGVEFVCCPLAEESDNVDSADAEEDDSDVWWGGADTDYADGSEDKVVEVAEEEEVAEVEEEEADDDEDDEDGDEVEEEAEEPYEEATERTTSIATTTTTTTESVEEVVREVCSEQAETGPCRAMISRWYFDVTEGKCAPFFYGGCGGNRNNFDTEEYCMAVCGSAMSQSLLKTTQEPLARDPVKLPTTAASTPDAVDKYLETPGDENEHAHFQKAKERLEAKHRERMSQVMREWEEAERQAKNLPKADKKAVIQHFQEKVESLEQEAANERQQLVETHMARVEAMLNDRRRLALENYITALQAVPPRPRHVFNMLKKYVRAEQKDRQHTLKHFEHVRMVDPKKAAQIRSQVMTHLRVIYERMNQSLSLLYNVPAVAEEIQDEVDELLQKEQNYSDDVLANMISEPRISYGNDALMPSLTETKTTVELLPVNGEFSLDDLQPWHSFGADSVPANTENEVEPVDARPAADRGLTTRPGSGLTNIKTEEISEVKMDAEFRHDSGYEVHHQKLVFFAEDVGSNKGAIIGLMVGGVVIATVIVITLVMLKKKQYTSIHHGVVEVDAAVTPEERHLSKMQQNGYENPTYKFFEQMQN

SMILES	EC50 [1] [µM]	inhibition [2] [%]	inhibition [3] [%]	EC50 [4] [µM]
O=c1oc2c(O)c(O)cc3c(=O)oc4c(O)c(O)cc1c4c23 [ELLAGIC ACID]	563	0.15	< 0.01	
O=C1O[C@H]2[C@@H]3OC(=O)c4cc(O)c(O)c(O)c4-c4c(cc(O)c(O)c4O)C(=O)OC[C@H]2O[C@@H](OC(=O)c2cc(O)c(O)c(O)c2)[C@@H]3OC(=O)c2cc(O)c(O)c3c2[C@@H]2C1=CC(=O)[C@](O)(O3)C2(O)O [GERANIIN]	7.03			10.5
O=C(O)c1cc(O)c(O)c(O)c1 [GALLIC ACID]	18.8	92		9.99
O=C(O)c1cc(O)c(O)c(O)c1-c1c(C(=O)O)cc(O)c(O)c1O	562	< 0.01	< 0.01	
O=C(O[C@@H]1O[C@@H]2COC(=O)c3cc(O)c(O)c(O)c3-c3c(cc(O)c(O)c3O)C(=O)O[C@H]([C@H]1O)[C@@H]2O)c1cc(O)c(O)c(O)c1 [CORILAGIN]	5.04	25	14	14
